Laboratory results as given in patent publication US20090156577A1, “7-AMINO ALKYLIDENYL-HETEROCYCLIC QUINOLONES AND NAPHTHYRIDONES” (priority 2004, published 2009).
≈ marks a conversion by molar mass, not a printed value. Where two headings read alike, the source gives them in different places.

Tested on: pathogenic bacteria
Test: MIC by microdilution broth method (NCCLS M7-A4), in vitro antibacterial activity
Assay type: cell-based
Summary of the method: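 MIC read after 35 °C incubation for 16–20 h relative to drug-free growth wells. Cation-adjusted Mueller-Hinton broth with two-fold compound dilutions, organisms at roughly 5×10^4 CFU/well final. Method follows NCCLS document M7-A4.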

[1] = Staphylococcus aureus, Organism A: Staphylococcus aureus OC4172, read-out: MIC
[2] = Streptococcus pneumoniae, ATCC49619, Organism E: Streptococcus pneumoniae ATCC 49619, read-out: MIC
[3] = Streptococcus pneumoniae, Organism B: fluoroquinolone-resistant clinical isolate of Streptococcus pneumoniae (QRDR amino acid substitutions)
[4] = Streptococcus pneumoniae, Organism C: fluoroquinolone-resistant clinical isolate of Streptococcus pneumoniae (QRDR amino acid substitutions)
[5] = Streptococcus pneumoniae, Organism D: fluoroquinolone-resistant clinical isolate of Streptococcus pneumoniae (QRDR amino acid substitutions)

Row | Structure (SMILES) | MIC [1] | MIC [2] | MIC [3] | MIC [4] | MIC [5]
1 | COc1c(N2CCC/C(=C(\Cl)CN)C2)c(F)cc2c(=O)c(C(=O)O)cn([C@@H]3C[C@@H]3F)c12 [Compound 407, (E)-7-[3-(2-Amino-1-chloro-ethylidene)-piperidin-1-yl]-6-fluoro-(1R,2S)-1-(2-fluoro-cyclopropyl)-8-methoxy-4-oxo-1,4-dihydro-quinoline-3-carboxylic acid] | ≤ 0.015 µg/mL | 0.03 µg/mL (≈ 0.0661 µM) | 0.03 µg/mL (≈ 0.0661 µM) | 0.25 µg/mL (≈ 0.551 µM) | 0.12 µg/mL (≈ 0.264 µM)
2 | COc1c(N2CCC/C(=C/CN)C2)c(F)cc2c(=O)c(C(=O)O)cn([C@@H]3C[C@@H]3F)c12 [Compound 408, (Z)-7-[3-(2-Amino-ethylidene)-piperidin-1-yl]-6-fluoro-(1R,2S)-1-(2-fluoro-cyclopropyl)-8-methoxy-4-oxo-1,4-dihydro-quinoline-3-carboxylic acid] | 0.03 µg/mL (≈ 0.0715 µM) | 0.25 µg/mL (≈ 0.596 µM) | 1 µg/mL (≈ 2.38 µM) | 2 µg/mL (≈ 4.77 µM) | 2 µg/mL (≈ 4.77 µM)
3 | COc1c(N2CCC/C(=C\CN)C2)c(F)cc2c(=O)c(C(=O)O)cn([C@@H]3C[C@@H]3F)c12 [Compound 409, (E)-7-[3-(2-Amino-ethylidene)-piperidin-1-yl]-6-fluoro-(1R,2S)-1-(2-fluoro-cyclopropyl)-8-methoxy-4-oxo-1,4-dihydro-quinoline-3-carboxylic acid] | 0.12 µg/mL (≈ 0.286 µM) | 1 µg/mL (≈ 2.38 µM) | – | > 16 µg/mL | > 16 µg/mL
4 | COc1c(N2CCC/C(=C(\C)CN)C2)c(F)cc2c(=O)c(C(=O)O)cn([C@@H]3C[C@@H]3F)c12 [Compound 410, (Z)-7-[3-(2-Amino-1-methyl-ethylidene)-piperidin-1-yl]-6-fluoro-(1R,2S)-1-(2-fluoro-cyclopropyl)-8-methoxy-4-oxo-1,4-dihydro-quinoline-3-carboxylic acid] | ≤ 0.015 µg/mL | 0.06 µg/mL (≈ 0.138 µM) | – | 0.5 µg/mL (≈ 1.15 µM) | 1 µg/mL (≈ 2.31 µM)
5 | NC/C(F)=C1\CCCN(c2c(F)cc3c(=O)c(C(=O)O)cn(-c4nc(N)c(F)cc4F)c3c2Cl)C1 [Compound 411, (Z)-1-(6-Amino-3,5-difluoro-pyridin-2-yl)-7-[3-(2-amino-1-fluoro-ethylidene)-piperidin-1-yl]-8-chloro-6-fluoro-4-oxo-1,4-dihydro-quinoline-3-carboxylic acid] | 0.06 µg/mL (≈ 0.117 µM) | 1 µg/mL (≈ 1.95 µM) | > 16 µg/mL | > 16 µg/mL | 16 µg/mL (≈ 31.3 µM)
6 | NC/C(Cl)=C1/CCCN(c2c(F)cc3c(=O)c(C(=O)O)cn(-c4nc(N)c(F)cc4F)c3c2Cl)C1 [Compound 412, (E)-1-(6-Amino-3,5-difluoro-pyridin-2-yl)-7-[3-(2-amino-1-chloro-ethylidene)-piperidin-1-yl]8-chloro-6-fluoro-4-oxo-1,4-dihydro-quinoline-3-carboxylic acid] | 0.12 µg/mL (≈ 0.227 µM) | 1 µg/mL (≈ 1.89 µM) | 16 µg/mL (≈ 30.3 µM) | > 16 µg/mL | 8 µg/mL (≈ 15.1 µM)
7 | NC/C=C1/CCCN(c2c(F)cc3c(=O)c(C(=O)O)cn(-c4nc(N)c(F)cc4F)c3c2Cl)C1 [Compound 413, (Z)-1-(6-Amino-3,5-difluoro-pyridin-2-yl)-7-[3-(2-amino-ethylidene)-piperidin-1-yl]8-chloro-6-fluoro-4-oxo-1,4-dihydro-quinoline-3-carboxylic acid] | 0.25 µg/mL (≈ 0.506 µM) | 2 µg/mL (≈ 4.05 µM) | 16 µg/mL (≈ 32.4 µM) | > 16 µg/mL | > 16 µg/mL
8 | NC/C=C1\CCCN(c2c(F)cc3c(=O)c(C(=O)O)cn(-c4nc(N)c(F)cc4F)c3c2Cl)C1 [Compound 414, (E)-1-(6-Amino-3,5-difluoro-pyridin-2-yl)-7-[3-(2-amino-ethylidene)-piperidin-1-yl]8-chloro-6-fluoro-4-oxo-1,4-dihydro-quinoline-3-carboxylic acid] | 0.25 µg/mL (≈ 0.506 µM) | 2 µg/mL (≈ 4.05 µM) | – | > 16 µg/mL | > 16 µg/mL
9 | Nc1nc(-n2cc(C(=O)O)c(=O)c3cc(F)c(N4CCC/C(=C(\F)CO)C4)c(Cl)c32)c(F)cc1F [Compound 415, (E)-1-(6-Amino-3,5-difluoro-pyridin-2-yl)-8-chloro-6-fluoro-7-[3-(1-fluoro-2-hydroxy-ethylidene)-piperidin-1-yl]-4-oxo-1,4-dihydro-quinoline-3-carboxylic acid] | 0.12 µg/mL (≈ 0.234 µM) | 4 µg/mL (≈ 7.8 µM) | – | > 16 µg/mL | > 16 µg/mL
10 | Nc1nc(-n2cc(C(=O)O)c(=O)c3cc(F)c(N4CCC/C(=C(/Cl)CO)C4)c(Cl)c32)c(F)cc1F [Compound 416, (Z)-1-(6-Amino-3,5-difluoro-pyridin-2-yl)-8-chloro-7-[3-(1-chloro-2-hydroxy-ethylidene)-piperidin-1-yl]-6-fluoro-4-oxo-1,4-dihydro-quinoline-3-carboxylic acid] | 0.06 µg/mL (≈ 0.113 µM) | 1 µg/mL (≈ 1.89 µM) | 16 µg/mL (≈ 30.2 µM) | > 16 µg/mL | 16 µg/mL (≈ 30.2 µM)
11 | Nc1nc(-n2cc(C(=O)O)c(=O)c3cc(F)c(N4CCC(=C(F)CO)CC4)c(Cl)c32)c(F)cc1F [Compound 417, 1-(6-Amino-3,5-difluoro-pyridin-2-yl)-8-chloro-6-fluoro-7-[4-(1-fluoro-2-hydroxy-ethylidene)-piperidin-1-yl]-4-oxo-1,4-dihydro-quinoline-3-carboxylic acid] | 0.03 µg/mL (≈ 0.0585 µM) | 0.5 µg/mL (≈ 0.975 µM) | 8 µg/mL (≈ 15.6 µM) | > 16 µg/mL | 4 µg/mL (≈ 7.8 µM)
12 | CNCC(F)=C1CN(c2c(F)cc3c(=O)c(C(=O)O)cn(-c4nc(N)c(F)cc4F)c3c2Cl)C1 [Compound 418, 1-(6-Amino-3,5-difluoro-pyridin-2-yl)-8-chloro-6-fluoro-7-[3-(1-fluoro-2-methylamino-ethylidene)-azetidin-1-yl]-4-oxo-1,4-dihydro-quinoline-3-carboxylic acid] | 0.06 µg/mL (≈ 0.121 µM) | 1 µg/mL (≈ 2.01 µM) | 16 µg/mL (≈ 32.1 µM) | > 16 µg/mL | 16 µg/mL (≈ 32.1 µM)
13 | Nc1nc(-n2cc(C(=O)O)c(=O)c3cc(F)c(N4CC(=C(F)CO)C4)c(Cl)c32)c(F)cc1F [Compound 419, 1-(6-Amino-3,5-difluoro-pyridin-2-yl)-8-chloro-6-fluoro-7-[3-(1-fluoro-2-hydroxy-ethylidene)-azetidin-1-yl]-4-oxo-1,4-dihydro-quinoline-3-carboxylic acid] | ≤ 0.015 µg/mL | ≤ 0.015 µg/mL | 0.03 µg/mL (≈ 0.0619 µM) | 0.25 µg/mL (≈ 0.516 µM) | 0.06 µg/mL (≈ 0.124 µM)
14 | NCC=C1CN(c2c(F)cc3c(=O)c(C(=O)O)cn(-c4nc(N)c(F)cc4F)c3c2Cl)C1 [Compound 420, 1-(6-Amino-3,5-difluoro-pyridin-2-yl)-7-[3-(2-amino-ethylidene)-azetidin-1-yl]-8-chloro-6-fluoro-4-oxo-1,4-dihydro-quinoline-3-carboxylic acid] | ≤ 0.015 µg/mL | 0.12 µg/mL (≈ 0.258 µM) | – | 1 µg/mL (≈ 2.15 µM) | 0.5 µg/mL (≈ 1.07 µM)
15 | CC(CN)=C1CN(c2c(F)cc3c(=O)c(C(=O)O)cn(-c4nc(N)c(F)cc4F)c3c2Cl)C1 [Compound 421, 1-(6-Amino-3,5-difluoro-pyridin-2-yl)-7-[3-(2-amino-1-methyl-ethylidene)-azetidin-1-yl]-8-chloro-6-fluoro-4-oxo-1,4-dihydro-quinoline-3-carboxylic acid] | 0.06 µg/mL (≈ 0.125 µM) | 0.25 µg/mL (≈ 0.521 µM) | – | 2 µg/mL (≈ 4.17 µM) | 1 µg/mL (≈ 2.08 µM)
16 | C/C(CN)=C1\CCCN(c2c(F)cc3c(=O)c(C(=O)O)cn(-c4nc(N)c(F)cc4F)c3c2Cl)C1 [Compound 422, (Z)-1-(6-Amino-3,5-difluoro-pyridin-2-yl)-7-[3-(2-amino-1-methyl-ethylidene)-piperidin-1-yl]-8-chloro-6-fluoro-4-oxo-1,4-dihydro-quinoline-3-carboxylic acid] | 0.12 µg/mL (≈ 0.236 µM) | 1 µg/mL (≈ 1.97 µM) | > 16 µg/mL | > 16 µg/mL | > 16 µg/mL
17 | C/C(CN)=C1/CCCN(c2c(F)cc3c(=O)c(C(=O)O)cn(-c4nc(N)c(F)cc4F)c3c2Cl)C1 [Compound 423, (E)-1-(6-Amino-3,5-difluoro-pyridin-2-yl)-7-[3-(2-amino-1-methyl-ethylidene)-piperidin-1-yl]-8-chloro-6-fluoro-4-oxo-1,4-dihydro-quinoline-3-carboxylic acid] | 0.25 µg/mL (≈ 0.492 µM) | 4 µg/mL (≈ 7.88 µM) | > 16 µg/mL | > 16 µg/mL | > 16 µg/mL
18 | Cc1c(F)c(N2CCC/C(=C(\F)CN)C2)cc2c1c(=O)c(C(=O)O)cn2C1CC1 [Compound 424, (E)-7-[3-(2-Amino-1-fluoro-ethylidene)-piperidin-1-yl]-1-cyclopropyl-6-fluoro-5-methyl-4-oxo-1,4-dihydro-quinoline-3-carboxylic acid] | ≤ 0.015 µg/mL | ≤ 1 µg/mL | 0.06 µg/mL (≈ 0.149 µM) | 0.5 µg/mL (≈ 1.24 µM) | ≤ 1 µg/mL
19 | Cc1c(F)c(N2CCC/C(=C(/F)CN)C2)cc2c1c(=O)c(C(=O)O)cn2C1CC1 [Compound 425, (Z)-7-[3-(2-Amino-1-fluoro-ethylidene)-piperidin-1-yl]-1-cyclopropyl-6-fluoro-5-methyl-4-oxo-1,4-dihydro-quinoline-3-carboxylic acid] | 0.06 µg/mL (≈ 0.149 µM) | 1 µg/mL (≈ 2.48 µM) | 4 µg/mL (≈ 9.92 µM) | 16 µg/mL (≈ 39.7 µM) | 8 µg/mL (≈ 19.8 µM)
20 | Cc1c(F)c(N2CCC/C(=C(\Cl)CN)C2)cc2c1c(=O)c(C(=O)O)cn2C1CC1 [Compound 426, (E)-7-[3-(2-Amino-1-chloro-ethylidene)-piperidin-1-yl]-1-cyclopropyl-6-fluoro-5-methyl-4-oxo-1,4-dihydro-quinoline-3-carboxylic acid] | ≤ 0.015 µg/mL | 0.06 µg/mL (≈ 0.143 µM) | ≤ 0.5 µg/mL | 1 µg/mL (≈ 2.38 µM) | 0.25 µg/mL (≈ 0.595 µM)
21 | Cc1c(F)c(N2CCC/C(=C/CN)C2)cc2c1c(=O)c(C(=O)O)cn2C1CC1 [Compound 427, (Z)-7-[3-(2-Amino-ethylidene)-piperidin-1-yl]-1-cyclopropyl-6-fluoro-5-methyl-4-oxo-1,4-dihydro-quinoline-3-carboxylic acid] | ≤ 0.015 µg/mL | 0.12 µg/mL (≈ 0.311 µM) | 2 µg/mL (≈ 5.19 µM) | 4 µg/mL (≈ 10.4 µM) | 1 µg/mL (≈ 2.59 µM)
